Measurements as given in PMC5467173, “Blood-brain-barrier spheroids as an in vitro screening platform for brain-penetrating agents” (Nature Communications, 2017).

Columns and labels:
[1] = tested on: BBB spheroid surface barrier; experiment: Co-incubation with high molecular weight dextran (integrity of spheroid surface barrier); settings: drug 10 μM with FITC-dextran 70 kDa 10 μg ml^−1, 24 h; 88 μm depth; nspheroid=3–6
Method: Multicellular BBB spheroids were formed through co-culturing astrocytes, HBVP and either HBMEC or hCMEC/D3 as described earlier for 48 h. Spheroids were incubated with increasing concentration of VEGF-A (between 5 and 100 ng ml^−1) and 10 μg ml^−1 of TRITC-Dextran (155 kDa; Sigma-Aldrich) or FITC-Dextran (70 kDa; Sigma-Aldrich) in the appropriate working medium for 24 h at 37 °C with 5% CO2. Spheroids were washed 3 times with PBS (5 min each), transferred into a Nunc Lab-Tek II thin-glass 8-well chambered coverglass (Thermo Scientific) and imaged under a confocal microscope as described earlier. Quantification of spheroid permeability to fluorescent dextran was performed using ImageJ software (http://imagej.net/Fiji). The mean fluorescence intensity of the core of each spheroid at 88 μm depth was quantified and plotted using GraphPad Prism (version 7.0 software).
To examine if angiopep-2 affects the overall permeability of the spheroid surface barrier, spheroids were co-incubated with 10 μM of TAMRA-angiopep (or TAMRA-scramble) and FITC-dextran (70 kDa; 10 μg ml^−1) as described earlier for 3 h at 37 °C on a rotator. […] The mean TAMRA and FITC fluorescence intensity of the core of each spheroid at 88 μm depth was quantified using ImageJ software and plotted using GraphPad Prism.

[2] = tested on: BBB spheroids (astrocytes, HBVP and hCMEC/D3 cells); experiment: Evaluation of small molecule transport into BBB spheroids using MALDI-MSI; format: in vitro ADME, human; settings: 10 μM, 24 h, 37 °C; 12 μm sections; 30 μm pixel step; nspheroid=150, ntissue=2
Method: BBB spheroids were established (using astrocytes, HBVP and hCMEC/D3 cells) for 48 h as described earlier. Approximately 150 spheroids per group were pooled into a 1.5 ml microcentrifuge tube in 1 ml of hCMEC/D3 working media. BKM120 or Dabrafenib was added into each tube at a final concentration of 10 μM and incubated for 24 h at 37 °C under constant rotation. Spheroids were washed 5 × with wash buffer (150 mM ammonium acetate in HPLC grade water, pH 7), and then transferred into an UltraFlux 0.2 ml PCR tube (BioExpress) in 200 μl of wash buffer. The spheroids were then, pooled at the bottom of the tube, and snap-frozen in a dry ice/ethanol bath. The top of the frozen tube was mounted onto a cryostat holder, and the bottom of the tube containing the spheroids was sectioned into 12 μm slices using a Microm HM550 cryostat, with the chamber and the specimen holder chilled at −26 °C. Sectioned tissues embedded in the frozen wash buffer were thaw-mounted onto indium tin oxide (ITO) coated microscopic slides (Bruker Daltonics) for MALDI-MSI, and regular positively charged glass slides for haematoxylin and eosin (H/E) staining. The tissues were allowed to dry for at least 15 min in a dessicator. […]

[3] = cited from earlier work
Text: Because most drugs are non-fluorescent, we explored an alternative strategy to detect drugs within the BBB spheroids using matrix-assisted laser desorption/ionization mass spectrometry imaging (MALDI-MSI).

[4] = tested on: multicellular BBB spheroids (astrocytes, HBVP and hCMEC/D3); experiment: Transport of fluorescently labelled peptides / CPP screen in multicellular BBB spheroids (hCMEC/D3), confocal microscopy; format: in vitro ADME, human
Method: Sterile 1% agarose (w/v) was prepared by adding […] of molecular biology grade agarose (Bio-rad) into 50 ml of PBS in a conical flask, and boiled in a microwave until completely dissolved. The melted agarose solution was transferred into a sterile tissue culture hood, and 50 μl of the solution was dispensed into each well of a 96-well plate while it was still hot using a multi-channel pipette, and allowed to cool/solidify (∼15 min). Primary human astrocytes, HBVP and HBMEC were released by trypsin/EDTA (Thermo Scientific) and resuspended in HBMEC working medium. The concentration of each cell type was determined using a haemocytometer. 1 × 10^3 of each cell type was seeded onto the agarose gel in each well of the 96-well plate in a 1:1:1 ratio (final volume=100 μl). Cells were placed in a humidified incubator at 37 °C with 5% CO2, and 95% natural air for 48–72 h to allow for the assembly of multicellular BBB spheroids. For spheroid formation using the immortalized hCMEC/D3 EC line: hCMEC/D3, astrocytes and HBVP were released by trypsin/EDTA and resuspended in hCMEC/D3 working medium. 1.5 × 10^3 of each cell type were seeded onto the agarose gel in each well of the 96-well plate in a 1:1:1 ratio, and spheroids were allowed to form as described above.
Angiopep-2 (or scramble) peptide labelled with a Cy5 was added into each tube at a final concentration of 5 and 10 μM, and incubated for 3 h at 37 °C on a rotator. Spheroids were washed with PBS, fixed with 3.7% formaldehyde and imaged using a confocal microscope as described in earlier sections. […] The same methodology was applied for angiopep-2/scramble peptide labelled with a TAMRA (tetramethylrhodamine) dye. To inhibit transcytosis, spheroids were incubated with each peptide (5 μM final concentration) in cold working medium (on ice) for 3 h. For cryo-sectioning, spheroids were embedded in optimum cutting temperature compound (Tissue-Tek, Sakura Finetek, Torrance, CA), frozen on dry ice and sliced into 10 μm sections. Spheroid sections were imaged under a Nikon epi-fluorescence inverted microscope. […]

[5] = Stability in hCMEC/D3 working media containing 2% human serum; format: in vitro ADME; settings: Cy5.5-CPP 5 μM in hCMEC/D3 working media (2% human serum), 37 °C, LC-MS extracted ion current, (EICt3/EICt0) × 100
Method: Cy5.5-angiopep and Cy5.5-scramble. Angiopep and scramble peptides (50 μM) were incubated in hCMEC/D3 working media (containing 2% human serum) at 37 °C. […] The material was resuspended in 30 μl of 50:50 water:acetonitrile containing 0.1% TFA. […] The process was repeated (n=3) for each peptide.

brain parenchyma = experiment: Ex vivo imaging of angiopep-2 in mouse brain after tail vein injection; settings: Cy5.5-labelled peptide, 100 μg via tail vein, mice killed after 24 h
Method: Cy5.5-angiopep-2 or Cy5.5-scramble were diluted to a final concentration of 1 mg ml^−1 in 0.9% NaCl irrigation solution (Hospira, Lake Forest, IL). 100 μl of each peptide (total of 100 μg) was administered intravenously via tail vein injection. After 24 h, mice were killed (by CO2 asphyxiation), and immediately perfused with PBS followed by 10% formalin solution (Sigma-Aldrich). Brains were excised, and a coronal cut through the cerebral cortex was made with a sharp scalpel. The brains were washed several times with PBS containing 0.05% Tween-20, and incubated with DyLight 488 lectin (Vector Laboratories, Burlingame, CA) and Hoechst dye (Life Technologies; 1:1,000 dilution) for 1 h in PBS containing 0.02% Tween-20. This was followed by 3 washes (15 min each) with PBS containing 0.05% Tween-20. […] The brain tissue was imaged under a confocal microscope using a × 40 oil immersion objective. Z-slices captured through each spheroid (up to 100 μm-deep) were merged to generate a 2D maximum intensity projection using the ZEN blue imaging software (version 2012). Animal experiments described here are listed in the Brigham and Women’s Hospital Animal Experimentation Protocol 2016N000300 Translational Neurooncology Core (BWH IACUC approved 2016).

[6] = tested on: hCMEC/D3 / HBVP / astrocyte triple co-culture transwell model; format: in vitro ADME, human
Method: Both the apical and basal sides of 24-well transwell insert (0.4 μm pore size; Greiner Bio-One, Cat. # 662,641) were coated with rat-tail collagen (5 μg ml^−1 in PBS; Olaf Pharmaceuticals, Worcester, MA) overnight at 4 °C. Each transwell was inverted, and 5 × 10^4 HBVP cells (in 50 μl pericyte medium) were seeded on the basal side of the insert. The inserts were encased in an inverted plate, and allowed to adhere in a humidified incubator for 2 h at 37 °C with 5% CO2. Inserts were then removed and placed within a 24-well plate (upright) containing 300 μl pericyte medium, ensuring that the HBVP cells on the basal side of the insert was properly submerged in the medium. […] hCMEC/D3 cells were seeded on the apical side of the insert (in 200 μl volume) in EGM-2. In a separate 24-well plate, 5.0 × 10^4 astrocytes were seeded in AGM. […] TEER measurements of inserts without cells were subtracted from TEER values obtained from inserts containing cells (measured in ohms (Ω)). […]
After 84 h of co-culture in the transwell, TAMRA- angiopep-2 or TAMRA-scramble were added into the apical side of the insert at a final concentration of 10 μM. […] To assess the apical-to-basolateral permeability, the mean fluorescence intensity of the basal side of the transwell was quantified over time using ImageJ software and plotted using GraphPad Prism.

[7] = tested on: multicellular BBB spheroids (astrocytes, HBVP and HBMEC); experiment: Transport of fluorescently labelled peptides into multicellular BBB spheroids (primary HBMEC), confocal microscopy; format: in vitro ADME, human
Method: Multicellular BBB spheroids (composed of astrocytes, HBVP and HBMEC (or hCMEC/D3)) were established for 48–72 h as described earlier, and pooled into a 1.5 ml Lobind microcentrifuge tube (Eppendorf) in 1.0 ml HBMEC (or hCMEC/D3) working media. […] Spheroids were washed with PBS, fixed with 3.7% formaldehyde and imaged using a confocal microscope as described in earlier sections. The mean fluorescence intensity inside each spheroid at 88 μm depth was quantified using ImageJ software and plotted using GraphPad Prism. […] To inhibit transcytosis, spheroids were incubated with each peptide (5 μM final concentration) in cold working medium (on ice) for 3 h. For cryo-sectioning, spheroids were embedded in optimum cutting temperature compound (Tissue-Tek, Sakura Finetek, Torrance, CA), frozen on dry ice and sliced into 10 μm sections. Spheroid sections were imaged under a Nikon epi-fluorescence inverted microscope.

Compound: Nc1cc(C(F)(F)F)c(-c2cc(N3CCOCC3)nc(N3CCOCC3)n2)cn1 [BKM120]
- Effect on ability of BBB spheroids to restrict entry of high molecular weight dextran [1]: did not affect
- Drug detected in sections of BBB spheroids by MALDI-MSI [2]: dramatic accumulation
- BBB penetrance [3]: known to cross the BBB

Compound: CC(C)(C)c1nc(-c2cccc(NS(=O)(=O)c3c(F)cccc3F)c2F)c(-c2ccnc(N)n2)s1 [dabrafenib]
- Effect on ability of BBB spheroids to restrict entry of high molecular weight dextran [1]: did not affect
- Drug detected in sections of BBB spheroids by MALDI-MSI [2]: not detected
- BBB penetrance [3]: limited BBB penetrance

Compound: LRRERQSRLRRERQSR [DPV15]
- Influx rate at earlier time points (15 min–1 h) [4]: highest influx rate

Compound: RKKRRQRRR [HIV-1 Tat, established brain-penetrating standard]
- product remaining after 3 h in working media [5]: 50%

Compound: VPALR [Bip(1), Cy5.5-labelled hydrophobic CPP from natural protein]
- Influx rate at earlier time points (15 min–1 h) [4]: highest influx rate

Compound: VSALK [Bip(2), Cy5.5-labelled hydrophobic CPP from natural protein]
- Influx rate at earlier time points (15 min–1 h) [4]: highest influx rate

Compound: angiopep-2
- Accumulation in the brain parenchyma in vivo (fluorescence of brain cryosections) (brain parenchyma): extravasation and accumulation
- Apical-to-basolateral permeability in co-culture transwell compared to inserts with no ECs [6]: significantly lower permeability
- Transwell permeability of angiopep-2 versus scrambled control [6]: unable to differentiate
- Influx of TAMRA-labelled peptide on co-incubation with FITC-dextran ([7]; 10 μM peptide, FITC-dextran 70 kDa 10 μg ml^−1, 3 h, 37 °C, 88 μm depth, nspheroid=3–6, nexperiment=3, versus scrambled peptide): significantly higher influx
- Peptide level in the core of fixed, cryosectioned spheroids (fluorescence microscopy) ([7]; 10 μm cryosections, epi-fluorescence): high level
- Influx of Cy5-labelled peptide at 4 °C (transcytosis inhibited) versus 37 °C ([7]; spheroids with primary HBMECs, 10 μM, 3 h, 88 μm depth): significantly reduced
- Influx of Cy5-labelled peptide into spheroid (mean Cy5 intensity at 88 μm depth) ([7]; spheroids with primary HBMECs, 5 and 10 μM, 3 h, 37 °C, confocal microscopy, compared with scrambled control, nspheroid=10, nexperiment=3): substantial influx
